± gives the standard deviation of the averaged measurements.
Key:
Assay in all cases: CTG-3D luminescence at 96 h relative to day-0 seeding control (ratio to day 0); higher = more growth / less cytotoxicity; PDxO 3D drug screen, 96 h, CTG-3D normalised to day-0 seeding control.
HCI-005.E2 = test system: HCI-005.E2 (organoid from a breast cancer xenograft with a HER2-positive history)
HCI-008 = test system: HCI-008 (organoid from a HER2-enriched breast cancer xenograft)
HCI-010 = test system: HCI-010 (organoid from a breast cancer xenograft)
HCI-011.E2 = test system: HCI-011.E2 (organoid from an ER-positive breast cancer xenograft)
HCI-012 = test system: HCI-012 (organoid from a breast cancer xenograft)
HCI-015 = test system: HCI-015 (organoid from a triple-negative breast cancer xenograft)
HCI-019 = test system: HCI-019 (organoid from a triple-negative breast cancer xenograft)

CC(=O)O[C@H]1C(=O)[C@@]2(C)[C@H]([C@H](OC(=O)c3ccccc3)[C@]3(O)C[C@H](OC(=O)[C@H](O)[C@@H](NC(=O)c4ccccc4)c4ccccc4)C(C)=C1C3(C)C)[C@]1(OC(C)=O)CO[C@@H]1C[C@@H]2O [paclitaxel]
CTG-3D luminescence at 96 h
Details	12.5 pM	0.00025 µM	0.005 µM	0.1 µM	1 µM	10 µM	100 µM	625 fM
HCI-005.E2	1.56 ± 0.41	1.54 ± 0.19	1.53 ± 0.45	1.34 ± 0.34	1.49 ± 0.35	1.85 ± 0.66	1.39 ± 0.33	1.97 ± 0.47
HCI-011.E2	1.3 ± 0.39	1.33 ± 0.37	1.09 ± 0.25	1.41 ± 0.65	1.34 ± 0.6	1.77 ± 0.55	1.8 ± 0.59	1.52 ± 0.6

CTG-3D luminescence at 96 h
Details	12.5 pM	0.00025 µM	0.005 µM	0.1 µM	1 µM	10 µM	100 µM	625 fM
HCI-008, days in culture: 228	1.67 ± 0.35	1.93 ± 0.13	0.719 ± 0.08	0.575 ± 0.049	0.627 ± 0.16	0.764 ± 0.12	0.554 ± 0.067	1.55 ± 0.12
HCI-008, days in culture: 244	1.16	1.96	1.22	0.925	0.832	0.852	0.58	2.02
HCI-010, days in culture: 52	2.13	2.39	2.24	1.16	1.15	1.12	0.408	2.28
HCI-010, days in culture: 65	1.61	1.57	1.36	1.05	0.898	0.958	0.43	1.64
HCI-010, days in culture: 103	3.62	3.37	3.05	1.41	1.24	1.28	0.858	3.06
HCI-011.E2, days in culture: 74	2.01	2.21	1.82	1.95	1.91	2.73	1.85	2.25
HCI-012, days in culture: 143	1.61	1.85	0.96	0.518	0.54	0.829	0.769	1.71
HCI-012, days in culture: 162	2.5	2.34	1.11	0.633	0.571	1.14	1.16	2.67
HCI-012, days in culture: 201	1.12	0.271	0.477	0.241	0.609	0.237	1.01	0.564
HCI-015, days in culture: 172	1.71	0.614	1.22	0.629	0.689	0.702	0.612	1.2
HCI-015, days in culture: 191	1.87	1.47	1.01	0.626	0.566	0.463	0.334	1.82
HCI-015, days in culture: 218	1.85	1.53	0.801	0.428	0.505	0.46	0.39	1.86
HCI-019, days in culture: 110	1.88	1.91	0.816	0.627	0.47	0.827	0.987	2.39
HCI-019, days in culture: 131	2.01	2.78	0.75	0.609	0.644	1.48	1.29	3.26
HCI-019, days in culture: 152	1.25	1.28	0.778	0.964	0.598	1.01	1.18	1.52

CCc1c2c(nc3ccc(O)cc13)-c1cc3c(c(=O)n1C2)COC(=O)[C@]3(O)CC [SN-38]
CTG-3D luminescence at 96 h
Details	12.5 pM	0.00025 µM	0.005 µM	0.1 µM	1 µM	10 µM	100 µM	625 fM
HCI-005.E2	1.65 ± 0.44	1.65 ± 0.42	1.41 ± 0.21	1.38 ± 0.29	1.17 ± 0.038	0.21 ± 0.15	0.199 ± 0.13	1.65 ± 0.18
HCI-011.E2	1.25 ± 0.19	1.54 ± 0.31	1.4 ± 0.3	1.48 ± 0.27	0.834 ± 0.32	0.362 ± 0.068	0.218 ± 0.021	1.46 ± 0.42

CTG-3D luminescence at 96 h
Details	12.5 pM	0.00025 µM	0.005 µM	0.1 µM	1 µM	10 µM	100 µM	625 fM
HCI-008, days in culture: 228	1.72 ± 0.38	1.6 ± 0.048	0.948 ± 0.27	0.349 ± 0.04	0.21 ± 0.049	0.132 ± 0.11	0.111 ± 0.082	1.93 ± 0.54
HCI-008, days in culture: 244	1.28	1.83	1.31	0.575	0.202	0.12	0.119	2.23
HCI-010, days in culture: 52	2.37	2.36	0.389	0.0916	0.0768	0.267	0.243	2.19
HCI-010, days in culture: 65	1.69	1.69	0.379	0.115	0.0812	0.317	0.334	0.54
HCI-010, days in culture: 103	3.57	3.27	0.516	0.116	0.145	0.599	0.576	2.96
HCI-011.E2, days in culture: 74	2.34	1.84	2.09	1.85	1.06	0.399	0.23	2.21
HCI-012, days in culture: 143	1.85	2.16	0.415	0.0623	0.0329	0.0255	0.0169	1.9
HCI-012, days in culture: 162	2.38	1.99	0.295	0.0642	0.0329	0.0269	0.0164	2.73
HCI-012, days in culture: 201	2.31	1.99	0.824	0.0348	0.0248	0.0127	0.014	1.61
HCI-015, days in culture: 172	2.31	1.87	1.68	0.173	0.101	0.0365	0.0336	2.79
HCI-015, days in culture: 191	1.52	1.32	0.538	0.0896	0.0635	0.0399	0.0305	1.5
HCI-015, days in culture: 218	2.35	1.74	1.05	0.109	0.0491	0.0388	0.0388	1.97
HCI-019, days in culture: 110	1.82	1.78	0.471	0.295	0.238	0.127	0.0625	2.53
HCI-019, days in culture: 131	3.04	2.79	0.948	0.312	0.308	0.107	0.169	3.56
HCI-019, days in culture: 152	3.21	3.38	1.51	0.48	0.521	0.106	0.0856	2.26
